Source: the supplement of paper PMC10307832

Key:
Test in all cases: relative viability (nuclei count vs DMSO), 5 days (fraction); higher = more cells survive
[1] = compound: CCC1=CN=CN=C1N2CCN(CC2)CC3=NC4=C(N3)C=C(C=C4)C(F)(F)F + CCNC(=O)c1noc(-c2cc(C(C)C)c(O)cc2O)c1-c1ccc(CN2CCOCC2)cc1 [Luminespib] (partner 0.01 µM)
Summary of the method: (§1)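 Lung cancer cell lines were pin-tool dosed in 1536-well plates on the day after seeding, with either a lone drug or a fixed anchor-drug dose plus five library-drug doses (not always all listed) in √10 steps. Nuclei were counted on 4× images after 5 days. Relative viability is the ratio of treated-well to vehicle-well nuclei counts, with each value a median of duplicate plates.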

[2] = compound: CCn1c(-c2nonc2N)nc2cnc(Oc3cccc(NC(=O)c4ccc(OCCN5CCOCC5)cc4)c3)cc21 + Cc1cc(Nc2cc(N3CCN(C)CC3)nc(Sc3ccc(NC(=O)C4CC4)cc3)n2)n[nH]1 [Tozasertib] (partner 0.1 µM)
Summary of the method: as §1

[3] = compound: CCn1c(-c2nonc2N)nc2cnc(Oc3cccc(NC(=O)c4ccc(OCCN5CCOCC5)cc4)c3)cc21 + N=C(N)NC(=N)NCCc1ccccc1 [Phenformin] (partner 250 µM)
Summary of the method: as §1

[4] = compound: CCn1c(-c2nonc2N)nc2cnc(Oc3cccc(NC(=O)c4ccc(OCCN5CCOCC5)cc4)c3)cc21 + NC(=O)Nc1cc(-c2cccc(F)c2)sc1C(=O)N[C@H]1CCCNC1 [AZD7762] (partner 0.2 µM)
Summary of the method: as §1

Cell Line | relative viability ([1]; first compound 0.04 µM) | relative viability ([1]; first compound 0.1265 µM) | relative viability ([1]; first compound 0.4 µM) | relative viability ([1]; first compound 1.265 µM) | relative viability ([1]; first compound 4 µM) | relative viability ([2]; first compound 0.04 µM) | relative viability ([2]; first compound 0.1265 µM) | relative viability ([2]; first compound 0.4 µM) | relative viability ([2]; first compound 1.265 µM) | relative viability ([2]; first compound 4 µM) | relative viability ([3]; first compound 0.04 µM) | relative viability ([3]; first compound 0.1265 µM) | relative viability ([3]; first compound 0.4 µM) | relative viability ([3]; first compound 1.265 µM) | relative viability ([3]; first compound 4 µM) | relative viability ([4]; first compound 0.04 µM) | relative viability ([4]; first compound 0.1265 µM) | relative viability ([4]; first compound 0.4 µM) | relative viability ([4]; first compound 1.265 µM) | relative viability ([4]; first compound 4 µM)
201T | 1.08 | 1.04 | 0.974 | 0.938 | 0.96 | 1.02 | 0.937 | 0.958 | 0.919 | 1.01 | 0.471 | 0.44 | 0.342 | 0.368 | 0.396 | 0.632 | 0.603 | 0.462 | 0.608 | 0.535
A549 |  |  |  |  |  |  |  |  |  |  | 0.303 | 0.151 | 0.0713 | 0.0328 | 0.0406 |  |  |  |  | 
A-427 | 0.874 | 0.881 | 0.908 | 0.75 | 0.722 | 0.189 | 0.234 | 0.228 | 0.182 | 0.186 | 0.471 | 0.377 | 0.227 | 0.167 | 0.114 | 0.774 | 0.503 | 0.364 | 0.188 | 0.21
ABC-1 | 0.636 |  |  | 0.504 | 0.527 | 0.137 | 0.153 | 0.156 | 0.209 | 0.176 | 0.23 | 0.266 | 0.209 | 0.277 | 0.217 | 0.96 | 0.663 | 0.445 | 0.402 | 0.625
BEN | 0.227 | 0.212 | 0.319 | 0.289 | 0.13 | 0.453 | 0.415 | 0.518 | 0.494 | 0.357 | 0.29 | 0.275 | 0.21 | 0.235 | 0.228 | 0.683 | 0.532 | 0.388 | 0.385 | 0.468
CAL-12T | 0.803 | 0.454 | 0.485 | 0.273 | 0.29 | 0.433 | 0.297 | 0.28 | 0.186 | 0.189 | 0.686 | 0.596 | 0.48 | 0.418 | 0.388 | 0.675 | 0.601 | 0.56 | 0.267 | 0.353
COR-L23 | 0.717 | 0.629 | 0.641 | 0.654 | 0.545 | 0.185 | 0.165 | 0.154 | 0.12 | 0.135 | 0.451 | 0.285 | 0.185 | 0.155 | 0.13 |  |  |  |  | 
COR-L 105 | 0.8 | 1.08 | 0.77 | 0.724 | 0.732 | 0.339 | 0.3 | 0.308 | 0.308 | 0.308 | 0.523 | 0.416 | 0.389 | 0.31 | 0.271 |  |  |  |  | 
ChaGo-K-1 | 0.566 | 0.591 | 0.62 | 0.548 | 0.432 | 0.242 | 0.244 | 0.232 | 0.211 | 0.165 | 0.599 | 0.413 | 0.306 | 0.351 | 0.398 | 0.978 | 0.867 | 0.738 | 0.596 | 0.581
EKVX | 0.846 | 0.83 | 0.882 |  | 0.919 | 0.423 | 0.473 | 0.46 | 0.216 | 0.265 | 0.275 | 0.242 | 0.136 | 0.227 | 0.236 | 0.927 | 0.718 | 0.478 | 0.476 | 0.621
EMC-BAC-2 | 1.24 | 1.19 | 1.2 |  | 1.14 | 0.231 | 0.283 | 0.249 | 0.165 | 0.155 | 0.502 | 0.387 | 0.259 | 0.176 | 0.178 | 1.17 | 1.01 | 0.504 | 0.476 | 0.32
EPLC-272H | 0.24 | 0.344 | 0.21 | 0.25 | 0.3 | 0.152 | 0.394 | 0.26 | 0.306 | 0.223 | 0.369 | 0.306 | 0.216 | 0.245 | 0.229 | 0.211 | 0.199 | 0.153 | 0.128 | 0.0806
H3255 | 0.785 | 0.853 | 0.72 | 0.619 | 0.859 | 0.758 | 0.5 | 0.706 | 0.377 | 0.325 | 0.455 | 0.35 | 0.332 | 0.322 | 0.358 | 0.967 | 0.737 | 0.742 | 0.383 | 0.481
HARA | 0.668 | 0.561 | 0.682 |  | 0.555 | 0.11 | 0.0979 | 0.093 | 0.13 | 0.0876 | 0.585 | 0.369 | 0.231 | 0.0981 | 0.074 | 0.215 | 0.161 | 0.148 | 0.207 | 0.198
HCC-15 | 0.308 | 0.299 | 0.27 | 0.299 | 0.406 | 0.451 | 0.403 | 0.417 | 0.278 | 0.258 | 0.532 | 0.362 | 0.269 |  | 0.364 | 1.3 | 1.51 | 0.974 | 1.05 | 0.987
HCC-44 | 1.02 | 1.01 | 1.03 | 0.88 | 1.07 | 0.841 | 0.146 | 0.373 | 0.225 | 0.188 | 0.249 | 0.216 | 0.113 | 0.096 | 0.074 | 1.07 | 1.18 | 0.916 | 0.975 | 0.333
HCC-78 |  |  |  |  |  | 0.589 |  |  | 0.532 | 0.519 | 0.789 | 0.934 |  | 0.766 | 0.881 | 0.865 | 0.821 |  | 0.617 | 0.906
HCC-366 |  |  |  |  |  | 0.134 | 0.105 | 0.0696 | 0.0938 | 0.0791 | 0.694 | 0.665 | 0.412 | 0.0542 | 0.0311 | 0.233 | 0.123 | 0.101 | 0.0314 | 0.0325
